Assay results as given in EP0909175B1, “NON-AQUEOUS PROTIC PEPTIDE FORMULATIONS” (ALZA CORPORATION, priority 1996, dated 1998).
One block for each substance: values may come before it.

Key:
Assay type in all cases: physicochemical
[1] = Anti-gellant effect of adding polar aprotic solvents (DMSO) to non-aqueous protic solvent formulations; details: adding polar aprotic solvents such as DMSO to non-aqueous protic solvent formulation
Excerpt: For example, leuprolide can be induced to gel by increasing peptide concentration, introduction of salts or gentle agitation. Improving physical stability can allow for easier parenteral administration, including administration using implantable drug delivery systems.
Thus, these solvents have an anti-gellant effect.

[2] = Stability of goserelin formulations, one month at 37°C, RP-HPLC (Example 10); details: for % CONCENTRATION: patent calls % concentration data unreliable
Procedure: (§1) Stability samples were analyzed using RP-HPLC. The area under the curve for the leuprolide peak divided by the sum of the areas under the curve of all peaks gave % purity. [It should be noted that the data for % concentration presented with the % purity data (Examples 6, 8, 9 and 10) are inconclusive. The analysis methods used to determine % concentration in these experiments were unreliable.]
Formulations of 40-45% (w/w) goserelin in either PEG 600 or PG/acetate buffer (30:70) were prepared as described above and placed in polymeric containers. The containers were stored at 37°C for one month in an incubator. The samples were analyzed using RP-HPLC to determine the chemical stability of the aged formulations.

[3] = Stability of nafarelin formulations, one month at 37°C, RP-HPLC (Example 11); details: for % CONCENTRATION: % concentration method called unreliable
Procedure: as §1
Formulations of 15% (w/w) nafarelin in either PEG 600 or propylene glycol were prepared as described above for leuprolide and placed in polymeric containers.
The containers were stored at 37°C for one month in an incubator.
The samples were analyzed using RP-HPLC to determine the chemical stability of the aged formulations.

[4] = Solubility studies of leuprolide acetate in PG (Example 3); details: in PG (w/w), heated at 80°C to accelerate dissolution
Procedure: Leuprolide acetate (obtained, for example, from Mallinckrodt, St. Louis, Missouri) was weighed and dissolved using heat (80°C), swirling, agitation and/or centrifugation as needed, in vehicle (PG, PEG, MPEG, PG/H2O, PG/H2O, PEG/PG, MPEG/H2O, or PG with EDTA) at the appropriate concentration (w/w). Unless otherwise noted the term PEG means PEG 300. The term dry PG refers to PG formulations prepared in a low moisture environment (i.e., dry N2 atmosphere). Leuprolide acetate formulations in PG were prepared as described above. Formulations were heated at 80°C to accelerate the dissolution of leuprolide in PG.

[5] = vehicle PEG 600, one month at 37°C

- gelation of the formulation [1]: prevents gelation
- % PURITY ([2]; vehicle PEG 600, 40-45% (w/w), one month at 37°C): 99.3%
- % CONCENTRATION [2, 5]: 23.6%
- % PURITY ([2]; vehicle PG/Acetate Buffer(30:70), 40-45% (w/w), one month at 37°C): 98.2%
- % CONCENTRATION ([2]; vehicle PG/Acetate Buffer(30:70), one month at 37°C): 49.7%
Substance: goserelin

- % PURITY ([3]; vehicle PEG 600, 15% (w/w), one month at 37°C): 99.4%
- % CONCENTRATION [3, 5]: 15.8%
- % PURITY ([3]; vehicle PG, 15% (w/w), one month at 37°C): 99.4%
- % CONCENTRATION ([3]; vehicle PG, one month at 37°C): 12.9%
Substance: nafarelin

- % Leuprolide Acetate ([4]; 146.8 mg leuprolide acetate in 147.2 mg PG): 49.93%
- % Leuprolide Acetate ([4]; 148.6 mg leuprolide acetate in 225.7 mg PG): 39.70%
- % Leuprolide Acetate ([4]; 154 mg leuprolide acetate in 183.7 mg PG): 45.60%
Substance: Leuprolide acetate

- gelation of the formulation [1]: prevents gelation
Substance: calcitonin

- gelation of the formulation [1]: prevents gelation
Substance: leuprolide
